Laboratory results from paper PMC7822874, “Chemoprotective antimalarials identified through quantitative high-throughput screening of Plasmodium blood and liver stage parasites” (Scientific Reports, 2021).
Like-named read-outs stand apart in the source and are kept apart here.

Tests used:
[1] = tested on: Plasmodium falciparum Dd2 asexual blood stage parasites; test: microbe, parasite or virus in culture; parameters: species or system Plasmodium falciparum Dd2 in human erythrocytes; single determination (one 11-point concentration-response curve); details: Plasmodium falciparum, DD2, Erythrocyte, 72 h
HepG2 = details: human, hepg2 cells, 48 h
in vitro = details: human, hepg2 cells

Structure (SMILES)	AC50 ([1]; read-out: AC50) [µM]	Log AC50 (M) (HepG2)	CC50 at 48 h (in vitro) [µM]	AC50 [1] [µM]
CCCCC(=O)NC(c1ccccc1OC)c1ccc2cccnc2c1O (stereo not drawn) [MLS000715346-01]	5.31	-4.7643	17.2	
Cc1nc(-c2ccccn2)nc(N(C)c2ccccc2)c1Cl [MLS001182279-01]	5.31	-4.8143	15.3	
O=C(Nc1ccc(Nc2ccncc2)cc1)c1ccc(Nc2ccnc3ccc([N+](=O)[O-])cc23)cc1[N+](=O)[O-] [MLS000756458-01]		-4.5643	27.3	1.33
Cc1cc(N2CCN(C)CC2)nc2ccc(NC(=O)Nc3cccc(Cl)c3)cc12 [NCGC00126479-01]	4.22	-4.3643	43.2	
CC(Sc1nc2ccccc2c(=O)n1C)C(=O)N(C)C1CCCCC1 (stereo not drawn) [MLS001098006-01]	5.31	-4.3643	43.2	
CCN(CC)CCn1c(=N)n(CC(O)COc2ccccc2C)c2ccccc21 (stereo not drawn) [NCGC00101835-01]	3.35	-4.5643	27.3	
COc1cc2c(Nc3ccc(Br)cc3F)ncnc2cc1OCC1CCN(C)CC1 [NCGC00167513-01]	5.96	-4.5643	27.3	
CCCN1CCN(CCCNC(=O)c2ccc3c(c2)sc2nc(-c4ccc(OCC)cc4)cn23)CC1 [NCGC00113254-01]	4.22	-4.6143	24.3	
COc1cc(Cl)c(NC2=CC(=O)C(=O)c3ccccc32)c(OC)c1 [MLS001360325-01]	1.68	-4.3643	43.2	
CCC1CCCCN1CCCNC(=O)c1ccc2c(c1)sc1nc(-c3ccc(F)cc3)cn12 (stereo not drawn) [NCGC00121679-01]	1.5	-4.4643	34.3	
CN(C)CCNC(=O)c1cc2c(s1)-c1ccc(Cl)cc1SC2 [MLS001198989-01]	13.3	-4.4643	34.3	
Cc1cc(NC2CCCCC2)nc(NCc2ccccc2)n1 [MLS000555549-01]	16.8	-4.4643	34.3	
CCN(CC)CCCNC(=O)c1ccc2c(c1)N(Cc1c(F)cccc1Cl)C(=O)c1ccccc1S2 [NCGC00108146-01]	0.944	-4.4143	38.5	
CCN(CC)CCNc1ccnc2cc(Cl)ccc12 [MLS000066547-01]	0.211	-4.5143	30.6	
CCOC(=O)CCCOc1cccn2c(=O)c(-c3cc(C)n(-c4ccc(Cl)cc4)n3)c(C)nc12 [NCGC00473250-01]	10.6	-4.8143	15.3	
COc1cc(C2CC(=O)N(Cc3ccc(F)cc3)c3ccccc3S2)cc(OC)c1OC (stereo not drawn) [NCGC00112401-01]	2.11	-4.5643	27.3	
Fc1cccc(NC(S)=NNc2c3ccccc3nc3ccccc23)c1 [MLS000660813-01]	15	-6.0143	0.968	
Cc1cccc(Cn2nnc3c2C(=O)c2ccccc2C3=O)c1 [MLS000594471-01]		-4.3643	43.2	
C[S+](=O)([O-])N1CCC(OC2CCN(C(=O)Nc3cc(F)ccc3F)CC2)CC1 [NCGC00445092-01]		-4.3643	43.2	
O=C(Nc1cccc(C(F)(F)F)c1)C1CCN([S+](=O)([O-])c2cccc3nsnc23)CC1 [NCGC00108239-01]		-4.3643	43.2	
O=C(NC1CCN(c2cc(-c3cccs3)n[nH]2)CC1)c1cccc(OC(F)(F)F)c1 [NCGC00437198-01]		-4.3643	43.2	
O=C(N/N=C/c1ccccn1)c1ccccc1 [MLS000562399-01]		-4.3643	43.2	
CCc1nnc([C@@H]2CC(F)(F)CN2Cc2cccn2C)o1 [NCGC00468656-01]		-4.8643	13.7	
CCc1ccc(NC(=O)C2CCN(c3cc(C(F)(F)F)ncn3)CC2)cc1 [NCGC00455558-01]		-4.4643	34.3	
O=C(Nc1ccc(Cl)cc1)N1CCC(c2nc(-c3ccccc3Cl)no2)CC1 [MLS000529331-01]		-4.4643	34.3	
COc1cnc(-c2ccccn2)nc1Oc1ccc(C(C)(C)C)cc1 [MLS001165485-01]		-4.4143	38.5	
SC(=Nc1ccncc1)NCc1ccccc1 [MLS001230114-01]		-4.5643	27.3	
Cc1cc(C)n(-c2nc3ccccc3c(=O)n2OCC#N)n1 [MLS001215162-01]		-4.9143	12.2	
O=C(Nc1ccc(Oc2cccnc2)cc1)C1CCN(Cc2cc(Cl)ccc2O)CC1 [MLS001072411-01]		-4.5143	30.6	
